Patent US20230365546A1, “5-SUBSTITUTED INDOLE 3-AMIDE DERIVATIVES, PREPARATION METHOD AND USE THEREOF” (ORIGIANT PHARMACEUTICAL CO., LTD, priority 2020, published 2023)

Tests used:
Experiment in all cases: Kinase Profiler 10 μM panel
PDK1(h) = PDK1(h) (Homo sapiens (Human), UniProt O15530)
Procedure: (§1) In vitro kinase assays were conducted using Kinase Profiler services provided by Eurofins. The experimental method was as follows: the small molecule compound to be tested (0.001-10 μM), the protein kinase to be tested were incubated with a buffer containing substrate, 10 mM magnesium acetate, and [γ-^33P-ATP], the reaction was started by adding Mg\TPmix, after incubation for a period of time at room temperature, a 3% phosphate solution was added to the buffer to stop the reaction. Subsequently, 10 μL of the reaction mixture was quantitatively pipetted onto P30 filter paper, which was washed three times with 75 mM phosphate solution and then once with methanol. The P30 filter paper was air-dried and scintillation fluid was added for scintillation counting.

DYRK2(h) = DYRK2(h) (Homo sapiens (Human), UniProt Q92630)
Procedure: as §1

TAF1L(h) = TAF1L(h) (Homo sapiens (Human), UniProt Q8IZX4)
Procedure: as §1

SRMS(h) = SRMS(h) (Homo sapiens (Human), UniProt Q9H3Y6)
Procedure: as §1

PRP4(h) = PRP4(h) (Homo sapiens (Human), UniProt Q13523); type: biochemical
Procedure: as §1

[1] = molecular target: PI3 Kinase (p110a(E542K)/p85a)(h) (Homo sapiens (Human), UniProt P42336, E542K)
Procedure: as §1

ChaK1(h) = test system: ChaK1(h)
Procedure: as §1

IRAK4(h) = IRAK4(h) (Homo sapiens (Human), UniProt Q9NWZ3)
Procedure: as §1

MLK3(h) = MLK3(h) (Homo sapiens (Human), UniProt Q16584)
Procedure: The experimental method was as follows: the small molecule compound to be tested (0.001-10 μM), the protein kinase to be tested were incubated with a buffer containing substrate, 10 mM magnesium acetate, and [γ-^33P-ATP], the reaction was started by adding Mg\TPmix, after incubation for a period of time at room temperature, a 3% phosphate solution was added to the buffer to stop the reaction. Subsequently, 10 μL of the reaction mixture was quantitatively pipetted onto P30 filter paper, which was washed three times with 75 mM phosphate solution and then once with methanol. The P30 filter paper was air-dried and scintillation fluid was added for scintillation counting.

B-Raf(h) = B-Raf(h) (Homo sapiens (Human), UniProt P15056)
Procedure: as §1

[2] = molecular target: PI3 Kinase (p110b/p85b)(m) (Mus musculus (Mouse), UniProt Q8BTI9)
Procedure: as §1

PKG1α(h) = PKG1α(h) (Homo sapiens (Human), UniProt Q13976)
Procedure: as §1

MRCKβ(h) = MRCKβ(h) (Homo sapiens (Human), UniProt Q9Y5S2)
Procedure: as §1

MEK2(h) = MEK2(h) (Homo sapiens (Human), UniProt P36507)
Procedure: as §1

Tie2(Y897S)(h) = Tie2(Y897S)(h) (Homo sapiens (Human), UniProt Q02763, Y897S)
Procedure: as §1

GSK3β(h) = GSK3β(h) (Homo sapiens (Human), UniProt P49841)
Procedure: as §1

EphA4(h) = EphA4(h) (Homo sapiens (Human), UniProt P54764)
Procedure: as §1

FGFR1(h) = FGFR1(h) (Homo sapiens (Human), UniProt P11362)
Procedure: as §1

TrkB(h) = TrkB(h) (Homo sapiens (Human), UniProt Q16620)
Procedure: as §1

SGK3(h) = SGK3(h) (Homo sapiens (Human), UniProt Q96BR1)
Procedure: as §1

Met(Y1248C)(h) = Met(Y1248C)(h) (Homo sapiens (Human), UniProt P08581, Y1230C)
Procedure: as §1

CaMKIβ(h) = CaMKIβ(h) (Homo sapiens (Human), UniProt Q6P2M8)
Procedure: as §1

MARK4(h) = MARK4(h) (Homo sapiens (Human), UniProt Q96L34)
Procedure: as §1

TNIK(h) = TNIK(h) (Homo sapiens (Human), UniProt Q9UKE5)
Procedure: as §1

MAPK2(h) = MAPK2(h) (Homo sapiens (Human), UniProt P28482)
Procedure: as §1

LTK(h) = LTK(h) (Homo sapiens (Human), UniProt P29376)
Procedure: as §1

Abl (M351T)(h) = Abl (M351T)(h) (Homo sapiens (Human), UniProt P00519, M351T)
Procedure: as §1

AMPKα1(h) = AMPKα1(h) (Homo sapiens (Human), UniProt Q13131)
Procedure: as §1

HRI(h) = HRI(h) (Homo sapiens (Human), UniProt Q9BQI3)
Procedure: as §1

MELK(h) = MELK(h) (Homo sapiens (Human), UniProt Q14680)
Procedure: as §1

PDHK2(h) = PDHK2(h) (Homo sapiens (Human), UniProt Q15119)
Procedure: as §1

EGFR(h) = EGFR(h) (Homo sapiens (Human), UniProt P00533)
Procedure: as §1

PKCμ(h) = PKCμ(h) (Homo sapiens (Human), UniProt Q15139)
Procedure: as §1

PI3KC2g(h) = PI3KC2g(h) (Homo sapiens (Human), UniProt O75747)
Procedure: as §1

Sequence of HRI(h) (Q9BQI3 whole entry): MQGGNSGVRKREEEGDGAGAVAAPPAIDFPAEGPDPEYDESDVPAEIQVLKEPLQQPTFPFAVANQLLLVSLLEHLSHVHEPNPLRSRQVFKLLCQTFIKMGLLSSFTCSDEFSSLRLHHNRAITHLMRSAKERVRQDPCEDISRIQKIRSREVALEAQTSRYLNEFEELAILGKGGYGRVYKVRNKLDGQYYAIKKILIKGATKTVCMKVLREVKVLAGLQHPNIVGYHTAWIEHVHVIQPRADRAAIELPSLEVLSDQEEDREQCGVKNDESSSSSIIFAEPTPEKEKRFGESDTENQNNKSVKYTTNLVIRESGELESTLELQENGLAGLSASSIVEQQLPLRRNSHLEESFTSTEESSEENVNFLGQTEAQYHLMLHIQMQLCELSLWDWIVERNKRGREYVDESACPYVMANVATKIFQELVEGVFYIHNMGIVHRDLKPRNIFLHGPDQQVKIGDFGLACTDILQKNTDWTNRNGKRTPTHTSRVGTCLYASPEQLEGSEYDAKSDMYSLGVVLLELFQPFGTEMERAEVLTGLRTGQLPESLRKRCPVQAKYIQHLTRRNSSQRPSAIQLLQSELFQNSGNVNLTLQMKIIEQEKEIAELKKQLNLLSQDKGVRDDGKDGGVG
Sequence of SRMS(h) (Q9H3Y6 whole entry): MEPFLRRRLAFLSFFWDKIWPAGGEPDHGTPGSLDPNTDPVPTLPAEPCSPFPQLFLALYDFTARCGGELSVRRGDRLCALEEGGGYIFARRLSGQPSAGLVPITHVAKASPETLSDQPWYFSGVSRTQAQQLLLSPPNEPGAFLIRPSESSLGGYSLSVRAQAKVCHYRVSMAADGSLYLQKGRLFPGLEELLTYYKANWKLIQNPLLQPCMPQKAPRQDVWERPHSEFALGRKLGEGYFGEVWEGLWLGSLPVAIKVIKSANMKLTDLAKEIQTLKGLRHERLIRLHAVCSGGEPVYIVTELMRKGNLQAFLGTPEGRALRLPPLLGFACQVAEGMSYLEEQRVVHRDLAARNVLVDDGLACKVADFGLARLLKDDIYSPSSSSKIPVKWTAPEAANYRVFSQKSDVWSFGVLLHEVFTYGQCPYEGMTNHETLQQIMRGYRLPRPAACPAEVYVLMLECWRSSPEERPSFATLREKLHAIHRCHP
Sequence of MRCKβ(h) (Q9Y5S2 whole entry): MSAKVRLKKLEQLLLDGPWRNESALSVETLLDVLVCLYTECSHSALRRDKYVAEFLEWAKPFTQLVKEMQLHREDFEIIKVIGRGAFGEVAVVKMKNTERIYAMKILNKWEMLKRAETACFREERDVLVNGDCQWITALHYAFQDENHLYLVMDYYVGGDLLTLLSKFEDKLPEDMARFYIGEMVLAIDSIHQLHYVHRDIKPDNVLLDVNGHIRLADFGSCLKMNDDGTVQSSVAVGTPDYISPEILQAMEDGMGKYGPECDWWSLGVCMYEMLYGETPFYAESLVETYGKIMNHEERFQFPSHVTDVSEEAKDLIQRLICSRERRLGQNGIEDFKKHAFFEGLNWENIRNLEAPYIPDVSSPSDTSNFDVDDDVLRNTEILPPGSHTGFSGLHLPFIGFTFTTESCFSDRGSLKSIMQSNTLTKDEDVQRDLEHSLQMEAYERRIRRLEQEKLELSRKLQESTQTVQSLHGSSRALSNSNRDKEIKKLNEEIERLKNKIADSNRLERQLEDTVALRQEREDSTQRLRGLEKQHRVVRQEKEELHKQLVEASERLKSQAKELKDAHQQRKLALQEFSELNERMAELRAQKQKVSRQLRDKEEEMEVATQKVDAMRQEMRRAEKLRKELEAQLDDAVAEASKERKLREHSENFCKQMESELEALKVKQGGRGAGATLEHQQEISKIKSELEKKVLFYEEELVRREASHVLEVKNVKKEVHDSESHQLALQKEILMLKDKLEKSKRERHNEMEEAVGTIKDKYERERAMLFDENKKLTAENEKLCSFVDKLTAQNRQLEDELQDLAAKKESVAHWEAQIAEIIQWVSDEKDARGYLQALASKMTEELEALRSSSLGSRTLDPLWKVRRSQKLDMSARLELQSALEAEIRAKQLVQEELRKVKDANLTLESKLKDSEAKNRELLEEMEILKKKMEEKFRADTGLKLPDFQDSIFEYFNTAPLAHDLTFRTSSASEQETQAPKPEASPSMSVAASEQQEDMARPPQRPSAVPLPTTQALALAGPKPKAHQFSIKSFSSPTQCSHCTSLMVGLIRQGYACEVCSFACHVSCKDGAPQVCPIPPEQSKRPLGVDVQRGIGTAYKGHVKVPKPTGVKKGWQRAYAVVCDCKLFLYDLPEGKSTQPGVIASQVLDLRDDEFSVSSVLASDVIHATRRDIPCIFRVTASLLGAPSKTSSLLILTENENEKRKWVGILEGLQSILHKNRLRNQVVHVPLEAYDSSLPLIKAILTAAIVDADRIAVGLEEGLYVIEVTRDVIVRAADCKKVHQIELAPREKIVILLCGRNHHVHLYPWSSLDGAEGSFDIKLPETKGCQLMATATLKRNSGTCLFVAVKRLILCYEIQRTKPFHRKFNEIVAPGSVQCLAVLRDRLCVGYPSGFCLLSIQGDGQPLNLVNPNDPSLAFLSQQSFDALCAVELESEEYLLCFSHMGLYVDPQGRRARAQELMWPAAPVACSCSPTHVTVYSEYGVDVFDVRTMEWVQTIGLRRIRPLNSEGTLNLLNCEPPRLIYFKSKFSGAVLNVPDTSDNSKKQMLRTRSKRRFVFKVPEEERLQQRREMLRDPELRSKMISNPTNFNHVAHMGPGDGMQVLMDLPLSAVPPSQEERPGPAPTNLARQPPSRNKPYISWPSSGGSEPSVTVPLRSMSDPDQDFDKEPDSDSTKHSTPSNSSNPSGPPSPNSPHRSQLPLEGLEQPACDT
Sequence of IRAK4(h) (Q9NWZ3 whole entry): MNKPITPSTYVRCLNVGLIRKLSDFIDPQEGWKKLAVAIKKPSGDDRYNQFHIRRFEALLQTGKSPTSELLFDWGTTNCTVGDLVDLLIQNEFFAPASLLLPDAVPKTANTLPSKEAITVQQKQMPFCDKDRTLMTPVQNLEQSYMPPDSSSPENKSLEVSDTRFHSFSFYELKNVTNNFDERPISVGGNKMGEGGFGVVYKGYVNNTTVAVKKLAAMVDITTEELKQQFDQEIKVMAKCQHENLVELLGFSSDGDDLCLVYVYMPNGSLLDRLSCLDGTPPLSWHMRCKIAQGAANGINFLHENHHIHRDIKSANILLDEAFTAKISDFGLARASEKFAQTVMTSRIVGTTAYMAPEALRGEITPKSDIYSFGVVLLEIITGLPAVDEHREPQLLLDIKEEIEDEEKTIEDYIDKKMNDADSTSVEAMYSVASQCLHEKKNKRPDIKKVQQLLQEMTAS
Sequence of TNIK(h) (Q9UKE5 whole entry): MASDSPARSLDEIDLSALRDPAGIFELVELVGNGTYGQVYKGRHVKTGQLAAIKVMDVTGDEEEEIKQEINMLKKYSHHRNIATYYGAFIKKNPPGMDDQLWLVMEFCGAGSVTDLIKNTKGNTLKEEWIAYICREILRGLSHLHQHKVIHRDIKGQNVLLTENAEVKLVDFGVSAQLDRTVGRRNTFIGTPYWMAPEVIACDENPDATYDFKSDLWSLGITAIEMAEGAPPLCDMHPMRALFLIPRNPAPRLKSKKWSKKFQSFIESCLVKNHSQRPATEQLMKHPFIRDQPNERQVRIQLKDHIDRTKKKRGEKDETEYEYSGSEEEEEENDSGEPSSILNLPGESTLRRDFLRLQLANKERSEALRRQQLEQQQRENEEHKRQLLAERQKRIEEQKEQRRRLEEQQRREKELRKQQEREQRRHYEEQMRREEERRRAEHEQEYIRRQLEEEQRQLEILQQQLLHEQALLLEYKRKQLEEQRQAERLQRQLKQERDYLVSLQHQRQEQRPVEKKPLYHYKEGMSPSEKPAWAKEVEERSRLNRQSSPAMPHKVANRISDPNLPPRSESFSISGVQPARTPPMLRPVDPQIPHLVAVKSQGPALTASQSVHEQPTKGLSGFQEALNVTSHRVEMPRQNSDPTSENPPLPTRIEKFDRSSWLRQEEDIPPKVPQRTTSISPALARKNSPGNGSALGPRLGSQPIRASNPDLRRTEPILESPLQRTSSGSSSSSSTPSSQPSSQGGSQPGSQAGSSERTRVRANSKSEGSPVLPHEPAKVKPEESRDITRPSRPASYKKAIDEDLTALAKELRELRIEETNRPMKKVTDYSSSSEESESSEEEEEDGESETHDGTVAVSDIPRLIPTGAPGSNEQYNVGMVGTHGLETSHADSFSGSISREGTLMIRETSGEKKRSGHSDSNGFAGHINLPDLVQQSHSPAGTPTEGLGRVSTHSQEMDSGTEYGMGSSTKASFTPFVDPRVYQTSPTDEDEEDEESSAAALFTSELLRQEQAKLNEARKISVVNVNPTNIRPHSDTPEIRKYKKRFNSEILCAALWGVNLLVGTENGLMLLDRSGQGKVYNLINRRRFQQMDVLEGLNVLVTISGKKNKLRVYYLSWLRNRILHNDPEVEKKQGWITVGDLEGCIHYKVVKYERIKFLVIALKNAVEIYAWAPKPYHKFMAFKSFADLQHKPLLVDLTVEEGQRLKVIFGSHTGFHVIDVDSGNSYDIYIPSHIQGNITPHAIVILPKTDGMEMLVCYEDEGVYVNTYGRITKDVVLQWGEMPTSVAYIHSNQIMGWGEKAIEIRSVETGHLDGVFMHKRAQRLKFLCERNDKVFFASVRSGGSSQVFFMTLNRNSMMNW
Sequence of Met(Y1248C)(h) (P08581 956-1390 Y1230C limits assumed): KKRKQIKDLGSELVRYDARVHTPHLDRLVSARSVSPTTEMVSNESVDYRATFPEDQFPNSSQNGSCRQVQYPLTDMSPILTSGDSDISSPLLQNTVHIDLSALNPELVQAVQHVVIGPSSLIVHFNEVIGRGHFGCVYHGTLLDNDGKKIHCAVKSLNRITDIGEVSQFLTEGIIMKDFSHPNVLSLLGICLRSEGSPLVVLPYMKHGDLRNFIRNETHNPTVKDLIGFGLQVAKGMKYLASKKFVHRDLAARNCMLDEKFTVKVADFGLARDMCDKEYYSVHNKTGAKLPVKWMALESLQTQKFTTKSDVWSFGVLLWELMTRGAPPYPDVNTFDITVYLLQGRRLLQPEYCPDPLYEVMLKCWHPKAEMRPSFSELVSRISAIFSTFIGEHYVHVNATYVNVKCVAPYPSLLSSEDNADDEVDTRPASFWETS

C[C@H](NC(=O)c1c[nH]c2ccc(-c3ccc4nc(NC(=O)C5CC5)sc4c3)cc12)c1cccc(F)c1 [Compound 34, (S)-5-(2-(cyclopropanecarboxamido)benzo[d]thiazol-6-yl)-N-(1-(3-fluorophenyl)ethyl)-1H-indole-3-carboxamide]
Inhibition ratio (PDK1(h)): 19%
Inhibition ratio (DYRK2(h)): 5%
Inhibition ratio (TAF1L(h)): 58%
Inhibition ratio (SRMS(h)): 12%
Inhibition ratio (PRP4(h)): 4%
Inhibition ratio [1]: 38%
Inhibition ratio (ChaK1(h)): 5%
Inhibition ratio (IRAK4(h)): 15%
Inhibition ratio (MLK3(h)): 101%
Inhibition ratio (B-Raf(h)): 20%
Inhibition ratio [2]: 45%
Inhibition ratio (PKG1α(h)): −12%
Inhibition ratio (MRCKβ(h)): −5%
Inhibition ratio (MEK2(h)): 8%
Inhibition ratio (Tie2(Y897S)(h)): 88%
Inhibition ratio (GSK3β(h)): 13%
Inhibition ratio (EphA4(h)): 14%
Inhibition ratio (FGFR1(h)): 72%
Inhibition ratio (TrkB(h)): 100%
Inhibition ratio (SGK3(h)): −1%
Inhibition ratio (Met(Y1248C)(h)): 99%
Inhibition ratio (CaMKIβ(h)): 11%
Inhibition ratio (MARK4(h)): 3%
Inhibition ratio (TNIK(h)): 99%
Inhibition ratio (MAPK2(h)): 11%
Inhibition ratio (LTK(h)): 23%
Inhibition ratio (Abl (M351T)(h)): 97%
Inhibition ratio (AMPKα1(h)): 4%
Inhibition ratio (HRI(h)): −3%
Inhibition ratio (MELK(h)): 36%
Inhibition ratio (PDHK2(h)): 3%
Inhibition ratio (EGFR(h)): 19%
Inhibition ratio (PKCμ(h)): 6%
Inhibition ratio (PI3KC2g(h)): 76%

C[C@H](NC(=O)c1cn(C)c2ccc(-c3ccn4nc(NC(=O)C5CC5)nc4c3)cc12)c1cccc(F)c1 [Compound 94, (S)-5-(2-(cyclopropanecarboxamido)-[1,2,4]triazolo[1,5-a]pyridin-7-yl)-N-(1-(3-fluorophenyl)ethyl)-1-methyl-1H-indole-3-carboxamide]
Inhibition ratio/% (PDK1(h)): 18%
Inhibition ratio/% (DYRK2(h)): 2%
Inhibition ratio/% (TAF1L(h)): 48%
Inhibition ratio/% (SRMS(h)): 43%
Inhibition ratio/% (PRP4(h)): 5%
Inhibition ratio/% [1]: −4%
Inhibition ratio/% (ChaK1(h)): 66%
Inhibition ratio/% (IRAK4(h)): −11%
Inhibition ratio/% (MLK3(h)): 102%
Inhibition ratio/% (B-Raf(h)): −5%
Inhibition ratio/% [2]: 44%
Inhibition ratio/% (PKG1α(h)): 12%
Inhibition ratio/% (MRCKβ(h)): −4%
Inhibition ratio/% (MEK2(h)): 13%
Inhibition ratio/% (Tie2(Y897S)(h)): 18%
Inhibition ratio/% (GSK3β(h)): 1%
Inhibition ratio/% (EphA4(h)): 11%
Inhibition ratio/% (FGFR1(h)): 70%
Inhibition ratio/% (TrkB(h)): 0%
Inhibition ratio/% (SGK3(h)): 41%
Inhibition ratio/% (Met(Y1248C)(h)): 11%
Inhibition ratio/% (CaMKIβ(h)): 31%
Inhibition ratio/% (MARK4(h)): 38%
Inhibition ratio/% (TNIK(h)): 59%
Inhibition ratio/% (MAPK2(h)): 40%
Inhibition ratio/% (LTK(h)): 5%
Inhibition ratio/% (Abl (M351T)(h)): 29%
Inhibition ratio/% (AMPKα1(h)): 57%
Inhibition ratio/% (HRI(h)): −4%
Inhibition ratio/% (MELK(h)): 1%
Inhibition ratio/% (PDHK2(h)): 32%
Inhibition ratio/% (EGFR(h)): 10%
Inhibition ratio/% (PKCμ(h)): 50%
Inhibition ratio/% (PI3KC2g(h)): 24%
